{"source": "patent US20100249050A1", "about": "“[…] AND USE THEREOF” (SHANDONG UNIVERSITY, priority 2008, published 2010)", "settings_in_all_cases": "for Inhibition rate of growth: 48-72 hrs", "key": {"[1]": {"tested_on": "human liver cancer cell HepG2", "test": "Antitumor activity test (MTT reduction / SRB protein staining), growth inhibition of HepG2", "format": "cell-based", "excerpt": "(§1) Screening method: methyl-thiazol-tettazolium (MTT) reduction method and sulforhodamine B (SRB) protein staining method.\n(§2) Cell strains: human liver cancer cell HepG2, human lung cancer cell A-549, and breast cancer cell MDA-MB-435."}, "[2]": {"tested_on": "human lung cancer cell A-549", "test": "Antitumor activity test (MTT reduction / SRB protein staining), growth inhibition of A-549", "format": "cell-based", "excerpt": "as §1, §2"}, "[3]": {"tested_on": "breast cancer cell MDA-MB-435", "test": "Antitumor activity test (MTT reduction / SRB protein staining), growth inhibition of MDA-MB-435", "format": "cell-based, human", "excerpt": "as §1, §2"}}}
{"compound": "CC(=Cc1csc(C)n1)C1CC2OC2CCCC(C)C(O)C(C)C(=O)C(C)(C)C(OC2OC(CO)C(O)C2O)CC(=O)O1", "note": "(centres unmarked) [epothilone glycoside A-1]", "values": [{"measurement": "IC50", "setting": "[1]; HepG2, 48-72 hrs", "value": 0.07, "unit": "µM"}, {"measurement": "Inhibition grade (no / weak / strong effect)", "setting": "[1]; HepG2, at the concentration of 10^−6 M", "value": "strong inhibition"}, {"measurement": "Inhibition rate of growth", "setting": "[1]; HepG2, concentration 10^−4 M", "value": 100}, {"measurement": "Inhibition rate of growth", "setting": "[1]; HepG2, concentration 10^−5 M", "value": 99.9}, {"measurement": "Inhibition rate of growth", "setting": "[1]; HepG2, concentration 10^−6 M", "value": 93.3}, {"measurement": "Inhibition rate of growth", "setting": "[1]; HepG2, concentration 10^−7 M", "value": 41.5}, {"measurement": "Inhibition rate of growth", "setting": "[1]; HepG2, concentration 10^−8 M", "value": 15.7}, {"measurement": "Inhibition grade (no / weak / strong effect)", "setting": "[2]; A-549, at the concentration of 10^−6 M", "value": "weak inhibition"}, {"measurement": "Inhibition rate of growth", "setting": "[2]; A-549, concentration 10^−4 M", "value": 90.6}, {"measurement": "Inhibition rate of growth", "setting": "[2]; A-549, concentration 10^−5 M", "value": 83.7}, {"measurement": "Inhibition rate of growth", "setting": "[2]; A-549, concentration 10^−6 M", "value": 72.0}, {"measurement": "Inhibition rate of growth", "setting": "[2]; A-549, concentration 10^−7 M", "value": 0}, {"measurement": "Inhibition rate of growth", "setting": "[2]; A-549, concentration 10^−8 M", "value": 0}, {"measurement": "IC50", "setting": "[3]; MDA-MB-435, 48-72 hrs", "value": 2.07, "unit": "µM"}, {"measurement": "Inhibition grade (no / weak / strong effect)", "setting": "[3]; MDA-MB-435, at the concentration of 10^−6 M", "value": "weak inhibition"}, {"measurement": "Inhibition rate of growth", "setting": "[3]; MDA-MB-435, concentration 1 μM", "value": 18.9}, {"measurement": "Inhibition rate of growth", "setting": "[3]; MDA-MB-435, concentration 2 μM", "value": 55.0}, {"measurement": "Inhibition rate of growth", "setting": "[3]; MDA-MB-435, concentration 4 μM", "value": 76.1}, {"measurement": "Inhibition rate of growth", "setting": "[3]; MDA-MB-435, concentration 8 μM", "value": 84.6}, {"measurement": "Inhibition rate of growth", "setting": "[3]; MDA-MB-435, concentration 10 μM", "value": 98.2}]}
